Measured values: patent US9301923B2, “Lipids, lipid compositions, and methods of using them” (NOVARTIS AG, priority 2009, dated 2016)
Several values for one entry are separate records, joined by “and”; a condition that tells them apart may be missing. Identical values can stand only once.

How the values were obtained:
[1] = pKa of the lipid by TNS fluorescence; assay type: physicochemical; conditions: pKa
Description: Unless explicitly indicated otherwise, all pKas referred to herein are measured in water at standard temperature and pressure. Also, unless otherwise indicated, all references to pKa are references to pKa measured using the following technique.
2 mM solution of lipid in ethanol are prepared by weighing the lipid and then dissolving in ethanol.
This is done with all eight buffers.
Priority: Column priority • Carriage Speed: Normal • Auto read: Off
The normalized fluorescence intensity vs. pH chart is then plotted in the Microsoft Excel software. The eight points are connected with a smooth line.
The pKa determined using this method is precise to about 0.2 pKa units.

[2] = Particle size and PDI by dynamic light scattering (Malvern Zetasizer); assay type: physicochemical
Description: Unless indicated otherwise, all sizes referred to herein are the average sizes (diameters) of the fully formed nanoparticle, as measured by dynamic light scattering on a Malvern Zetasizer. The nanoparticle sample is diluted in phosphate buffered saline (PBS) so that the count rate is approximately 200-400 kcts. The data is presented as a weighted average of the intensity measure.
The acronym PDI stands for polydispersity index. Unless indicated otherwise, all PDIs referred to herein are the PDI of the fully formed nanoparticle, as measured by dynamic light scattering on a Malvern Zetasizer. The nanoparticle sample is diluted in phosphate buffered saline (PBS) so that the count rate is approximately 200-400 kcts.

Factor VII = Factor VII activity assay, in vivo liver delivery of FVII siRNA LNP; parameters: species or system mouse; conditions: for FVII inhib %: ~48 h
Description: Female CD-1 mice are received from Charles River Labs and maintained on standard lab chow and water ad libitum. The animals weigh approximately 25 grams at time of dosing. Formulated siRNA is administered as a single dose at various dose levels intravenously via the lateral tail vein calculated on a (mg siRNAs/kg) basis according to individual animal weights (10 ml/kg injection volume).
Formulated siRNAs are made up of double stranded siRNA sequences specific to a target mRNA sequence, and are in the form of lipid nucleotid particles (LNPs) containing cationic lipids, stealth lipids and neutral lipids, as provided in the Examples below. The siRNA construct for use in targeting the liver is specific to Factor VII. […] FVII siRNA duplex sequence
Formulated Factor VII siRNA is administered as a single dose at various dose levels intravenously via the lateral tail vein calculated on a mg siRNAs/kg basis according to individual animal weights (10 ml/kg injection volume). Approximately 48 h after injection, the mice are euthanized by CO2 inhalation followed by exsanguinations through the vena cava. […] In some cases, small pieces (˜50 mg) of liver are collected and snap frozen in liquid nitrogen for follow up mRNA quantitation.
An assay standard curve is prepared using pooled plasma aliquots from the vehicle control animals.

[3] = lipid/DSPC/CHOL/AVANTI 880150P 50/28/18/4, N/P 3.43
[4] = lipid/no neutral lipid/CHOL/AVANTI 880150P 50/0/46/4, N/P 3.43
[5] = dose 1 mg/kg siRNA i.v., lipid/no neutral lipid/CHOL/AVANTI 880150P 50/0/46/4, N/P 3.43
[6] = dose 3 mg/kg siRNA i.v., lipid/DSPC/CHOL/AVANTI 880150P 50/28/18/4, N/P 3.43
[7] = dose 3 mg/kg siRNA i.v., lipid/no neutral lipid/CHOL/AVANTI 880150P 50/0/46/4, N/P 3.43
[8] = lipid/no neutral lipid/CHOL/GM-020 NOF 60/0/36/4, N/P 3
[9] = dose 1 mg/kg siRNA i.v., lipid/no neutral lipid/CHOL/GM-020 NOF 60/0/36/4, N/P 3
[10] = dose 1 mg/kg siRNA i.v., lipid/DSPC/CHOL/AVANTI 880150P 50/28/18/4, N/P 3.43

SMILES | pKa [1] | Final size (nm) [2, 3] | PDI [2, 3] | Final size (nm) [2, 4] | PDI [2, 4] | FVII inhib % (Factor VII; [5]) | FVII inhib % (Factor VII; [6]) | FVII inhib % (Factor VII; [7]) | in vivo Factor VII inhibition (Factor VII; formulation containing the cationic lipid, RNAi construct specific to Factor VII, liver) | Final size (nm) [2, 8] | PDI [2, 8] | FVII inhib % (Factor VII; [9]) | FVII inhib % (Factor VII; [10])
CCCCC/C=C\C/C=C\CCCCCCCCOCC(CN(C)C)OCCCCO[C@H]1CC[C@@]2(C)C(=CCC3C2CC[C@@]2(C)C3CC[C@@H]2[C@H](C)CCCC(C)C)C1 (stereo partly drawn) [E0173, 3-Dimethylamino-2-(Cholest-5-en-3-beta-oxybutan-4-oxy) -1-(cis,cis-9,12-octadecadienoxy)propane, reference compound] | 6.73 | 98 nm | 0.17 | 76 nm | 0.16 | 87.4% | 90.9% | 98.5% | 98.5% | – | – | – | –
CCCCC/C=C\C/C=C\CCCCCCCCOCC(CN1CC2CCCN(C(=O)OC(C)(C)C)C2C1)OCCOCCO[C@H]1CC[C@@]2(C)C(=CCC3C2CC[C@@]2(C)C3CC[C@@H]2[C@H](C)CCCC(C)C)C1 (stereo partly shown) [E0041] | 4.8 | 95 nm | 0.37 | 93 nm | 0.21 | – | −7.4% | 17.6% | – | – | – | – | –
CCCCCCCC/C=C\CCCCCCCCOCC(CN1CCCCC1)OCCCOCCCO[C@H]1CC[C@@]2(C)C(=CC[C@H]3[C@@H]4CC[C@H]([C@H](C)CCCC(C)C)[C@@]4(C)CC[C@@H]32)C1 (stereo partly shown) [E0078] | 5.72 | – | – | – | – | – | – | – | – | 122.6 nm | 0.098 | 51.9% | –
CCCCC/C=C\C/C=C\CCCCCCCCOCC(CN1C(C)CCC1C)OCCOCCO[C@H]1CC[C@@]2(C)C(=CCC3C2CC[C@@]2(C)C3CC[C@@H]2[C@H](C)CCCC(C)C)C1 (stereo partly shown) [E0046] | 5.75 | – | – | 194 nm | 0.116 | – | – | 12.7% | – | – | – | – | –
CCCCC/C=C\C/C=C\CCCCCCCCOCC(CN1CCCCC1)OCCOCCNC(=O)O[C@H]1CC[C@@]2(C)C(=CCC3C2CC[C@@]2(C)C3CC[C@@H]2[C@H](C)CCCC(C)C)C1 (stereo partly shown) [E0054] | 6.58 | 103 nm | 0.2 | 96 nm | 0.13 | 63% | 97.8% | 98.9% | – | – | – | – | 57.5%
CCCCC/C=C\C/C=C\CCCCCCCCOCC(CN1CC=CC1)OCCOCCO[C@H]1CC[C@@]2(C)C(=CCC3C2CC[C@@]2(C)C3CC[C@@H]2[C@H](C)CCCC(C)C)C1 (stereo partly shown) [E0032] | 6.8 | 87 nm | 0.18 | 63 nm | 0.21 | – | 64.5% | 85.5% | – | – | – | – | –
CCCCC/C=C\C/C=C\CCCCCCCCOCC(CN1Cc2ccccc2C1)OCCOCCO[C@H]1CC[C@@]2(C)C(=CCC3C2CC[C@@]2(C)C3CC[C@@H]2[C@H](C)CCCC(C)C)C1 (stereo partly shown) [E0029] | 4.95 | 137 nm | 0.04 | 113 nm | 0.08 | – | 12.4% | −19.1% | – | – | – | – | –
CCCCC/C=C\C/C=C\CCCCCCCCCCOCC(CN1CCOCC1)OCCO[C@H]1CC[C@@]2(C)C(=CC[C@H]3[C@@H]4CC[C@H]([C@H](C)CCCC(C)C)[C@@]4(C)CC[C@@H]32)C1 (stereo partly shown) [E0068] | 4.82 | – | – | – | – | – | – | – | – | 174.0 nm | 0.041 | 28.6% | –
CCCCC/C=C\C/C=C\CCCCCCCCOCC(CN1CC[C@@H]2CCCC[C@@H]2C1)OCCOCCO[C@H]1CC[C@@]2(C)C(=CCC3C2CC[C@@]2(C)C3CC[C@@H]2[C@H](C)CCCC(C)C)C1 (stereo partly shown) [E0021] | 5.13 | 85 nm | 0.22 | 72 nm | 0.184 | – | 24.5% | 52.8% | – | – | – | – | –
CCCCC/C=C\C/C=C\CCCCCCCCOCC(CN1CC=CCC1)OCCOCCO[C@H]1CC[C@@]2(C)C(=CCC3C2CC[C@@]2(C)C3CC[C@@H]2[C@H](C)CCCC(C)C)C1 (stereo partly shown) [E0018] | 5.9 | 119 nm | 0.095 | 103 nm and 140 nm | 0.113 and 0.13 | 40.5% | 91.8% | 98% | – | – | – | – | –
CCCCCCCC/C=C\CCCCCCCCOCC(CN1CCCCC1)OCCOCCO[C@H]1CC[C@@]2(C)C(=CC[C@H]3[C@@H]4CC[C@H]([C@H](C)CCCC(C)C)[C@@]4(C)CC[C@@H]32)C1 (stereo partly shown) [E0063] | 6.48 | – | – | – | – | – | – | – | – | 155.5 nm | 0.09 | 33.3% | –
CCCCC/C=C\C/C=C\CCCCCCCCOCC(CN1CCCC2CCCCC21)OCCOCCO[C@H]1CC[C@@]2(C)C(=CCC3C2CC[C@@]2(C)C3CC[C@@H]2[C@H](C)CCCC(C)C)C1 (stereo partly shown) [E0010] | 5.85 | 90 nm | 0.184 | 80 nm | 0.201 | – | 46.8% | 65.1% | – | – | – | – | –
CCCCC/C=C\C/C=C\CCCCCCCCOCC(CN1CCC(N(C)C)C1)OCCOCCO[C@H]1CC[C@@]2(C)C(=CC[C@H]3[C@@H]4CC[C@H]([C@H](C)CCCC(C)C)[C@@]4(C)CC[C@@H]32)C1 (stereo partly shown) [E0039] | 5.88 | 113 nm | 0.15 | 94 nm | 0.06 | – | −6.7% | −5.4% | – | – | – | – | –
CCCCC/C=C\C/C=C\CCCCCCCCOCC(CN1CCCC1C)OCCOCCOCCO[C@H]1CC[C@@]2(C)C(=CC[C@H]3[C@@H]4CC[C@H]([C@H](C)CCCC(C)C)[C@@]4(C)CC[C@@H]32)C1 (stereo partly shown) [E0082] | 6.81 | – | – | – | – | – | – | – | – | 105.1 nm | 0.303 | 49.7% | –
CCCCC/C=C\C/C=C\CCCCCCCCOCC(CN1CCCCC1)OCCOCCOCCOCCO[C@H]1CC[C@@]2(C)C(=CC[C@H]3[C@@H]4CC[C@H]([C@H](C)CCCC(C)C)[C@@]4(C)CC[C@@H]32)C1 (stereo partly shown) [E0079] | 6.79 | – | – | – | – | – | – | – | – | 106.2 nm | 0.052 | 33.5% | –
CCCCC/C=C\C/C=C\CCCCCCCCOCC(CN1CCC(N2CCCCC2)CC1)OCCOCCO[C@H]1CC[C@@]2(C)C(=CCC3C2CC[C@@]2(C)C3CC[C@@H]2[C@H](C)CCCC(C)C)C1 (stereo partly shown) [E0004] | 7.48 | 142 nm | 0.113 | 186 nm | 0.201 | – | 23.4% | 41% | – | – | – | – | –
CCCCC/C=C\C/C=C\CCCCCCCCOC[C@@H](CN1CCC[C@H]1C)OCCOCCO[C@H]1CC[C@@]2(C)C(=CCC3C2CC[C@@]2(C)C3CC[C@@H]2[C@H](C)CCCC(C)C)C1 (stereo partly shown) [E0052] | 6.95 | 100.4 nm | 0.185 | – | – | – | 98.1% | – | – | – | – | – | 69.8%
CCCCCCCC/C=C\CCCCCCCCOCC(CN1CCC(OC)C1)OCCO[C@H]1CC[C@@]2(C)C(=CC[C@H]3[C@@H]4CC[C@H]([C@H](C)CCCC(C)C)[C@@]4(C)CC[C@@H]32)C1 (stereo partly shown) [E0062] | 6.45 | – | – | – | – | – | – | – | – | 145.1 nm | 0.125 | 64.8% | –
CCCCC/C=C\C/C=C\CCCCCCCCCCOCC(CN1CCCC1C)OCCO[C@H]1CC[C@@]2(C)C(=CC[C@H]3[C@@H]4CC[C@H]([C@H](C)CCCC(C)C)[C@@]4(C)CC[C@@H]32)C1 (stereo partly shown) [E0070] | 6.4 | – | – | – | – | – | – | – | – | 150.9 nm | 0.045 | 50.3% | –
